Like-named read-outs stand apart in the source and are kept apart here.
What was measured:
HeLa cells = assay: Cell cycle analysis by flow cytometry; assay type: cell-based, human
Protocol: Figure 5 CTR-21 arrests cells at G2/M, eventually leading to cell death by apoptosis. (a) Effects of CTR-21 on the cell cycle progression of HeLa and E112 cells. […] (b) Cell morphology of CTR-21 arrested cells. HeLa cells were treated with 30 nM of CTR-21 for 12 h, fixed with methanol and immunostained with α-tubulin or γ-tubulin, and counterstained with DAPI. Bar = […]. (c) CTR-21 promotes PARP cleavage. […] GAPDH was used as a loading control.
Cell cycle progression was determined using flow cytometry. UKRV-Mel-38 and HeLa cells were plated onto 10 cm plate at a density of 0.5 million and treated them with or without the compounds the following day for 12, 24 or 48 h. Cells were then harvested and centrifuged at 1000 rpm for 5 min, washed in PBS and then fixed with ice-cold ethanol (70%) for at least 24 h at − 20 °C. The cells were centrifuged, re-suspended in PBS solution, followed by centrifugation. The cell pellet was then stained with 100 μg/mL propidium iodide (PI) and 100 μg/mL RNase A in distilled water for at least 1 h. DNA content was measured using a Beckmann Coulter Cytomics FC500 (Beckman Coulter, Fullerton, CA), and the proportion of cell populations in G0/G1, S, and G2/M phases of cell cycle was calculated on the basis of DNA distribution histograms using CXP software (Beckman Coulter, Fullerton, CA).

[1] = test system: primary human epidermal melanocytes; assay: GI50 on primary skin cells; assay type: cell-based; details: for GI50: Homo sapiens, Melanocyte, primary skin cells; for Selectivity Index (primary skin cells): primary melanocytes versus average GI50 of cancer cells
Protocol: The human MDA-MB-231, MCF7, MDA-MB-468, RPMI-8226 and HeLa cell lines were purchased from ATCC and maintained in Dulbecco's Modified Eagle Medium (DMEM)—high glucose supplemented with 10% fetal bovine serum (FBS) and antibiotics/antimycotics. Cell line authentication was carried out by Genetica DNA Laboratories (Burlington, NC) using a short tandem repeat (STR) profiling method (March 2015; July 2015; September 2016). Melanoma cells E-055 (MZ-Mel-3), E-097 (Mel-SOE), E-112 (UKRV-Mel-38), E-157 (UKRV-Mel-17) were obtained from the European Searchable Tumour Line Database (ESTDAB) cell bank (a kind gift of Dr. Graham Pawelec, Tubingen University, Germany). MDA-MB-435 was purchased from the Division of Cancer Treatment and Diagnosis Tumor Repository. All melanoma cells were cultured in Roswell Park Memorial Institute (RPMI) medium supplemented with 10% FBS and P/S/antimycotics. Primary human epidermal melanocytes from normal adult abdominal skin were purchased from ATCC (cat # PCS-200–013) and Cell Applications (cat#104-05a). The melanocytes were cultured in the media supplied by the companies.
(§1) The SRB assay was used to assess drug-induced cytotoxicity and cell proliferation as previously described[2],[33],[34] with a few modifications. Briefly, cells were plated 10,000 to 25,000 cells/cm^2 in 96-well plates (100 µl medium) and allowed to adhere overnight. The cell counts were different for each cell line to ensure optimal cell growth for the duration of the assay. Eight different concentrations of compound solutions using 2–4 times serial dilutions (100 µl). Cells were then incubated for an additional 48 h and then fixed with 100 µl ice-cold 10% (w/v) trichloroacetic acid (TCA) (without removing the cell medium, final concentration, 3.3% of TCA) and stained with 0.4% SRB (w/v) in 1% acetic acid (v/v). The relative growth rate (%) was calculated for each of the compound concentrations according to the following formula: 100 * (T − T0)/(C − T0), in which T is the optical density (OD) after exposure to a certain concentration of the compound after 48 h, T0 is the OD at the start of drug exposure (time zero) and C is the control growth. The GI50 for each compound was obtained from a non-linear sigmoidal dose–response (variable slope) curve fitted by GraphPad Prism v.4.03 software.

[2] = molecular target: tubulin (colchicine binding site) (Sus scrofa, UniProt P02550+P02554); assay: Colchicine binding site competition assay (fluorescence of tubulin-colchicine complex, modified Dixon plot); details: for Ki / mode of inhibition of colchicine binding: modified Dixon plot; for mode of inhibition of colchicine binding: trendlines intersect above the X-axis
Protocol: (a) CTR-21 and CTR-32 inhibit microtubule polymerization in vitro. Spontaneous polymerization of 20 µM porcine tubulin was initiated with the addition of 1 mmol/L GTP at 37 °C and monitored every minute for 60 min in the presence of the indicated concentration of CTR-21, CTR-32, nocodazole, paclitaxel, or a DMSO vehicle control. To make the graph simpler, only 3 µM concentration is shown. The effects of higher doses are shown in Supplemental Fig. S9. […] Fluorescent intensity was compared to the fluorescence of the tubulin-colchicine complex in absence of CTR-21 or CTR-32 (F0). […] A modified Dixon plot was used to determine the inhibitory concentration of CTR-21 and CTR-32 (Ki).
When we added either CTR-21 or CTR-32 to the colchicine-tubulin complex, we observed a reduction in fluorescence in a dose -dependent manner (Fig. 2b).
Microtubule assembly was assessed using a Tubulin Polymerization assay kit (BK011P; Cytoskeleton Inc., Denver, CO). 20 µM of purified porcine tubulin proteins (> 99% purity) were suspended in G-PEM buffer containing 80 mM PIPES, 2 mM MgCl2, 0.5 mM EGTA, 1 mM GTP (pH 6.9) and 20% glycerol. Polymerization was started by incubating at 37 °C and followed by absorbance readings every 1 min at 340 nm for 1 h using a Synergy H4 plate reader.

MDA-MB231-TaxR = assay: Sulforhodamine B (SRB) assay; assay type: cell-based; details: Homo sapiens, MDA-MB231-TaxR paclitaxel-resistant breast cancer cells, 48 h
From the text: We had initially determined that quinolone chalcones were promising anti-proliferative through a first round screening and identified CTR-17 and CTR-20 as favorable structures for anticancer activity. […] We carried out a comparative SAR study to determine if we could further optimize the quinolone chalcone to maximize efficacy. The Sulforhodamine B (SRB) assay was used to measure the anti-proliferative/cell killing activities of CTRs, for which several different cell lines were use: the cervical cancer HeLa, the breast cancer cell lines MDA-MB231, MDA-MB468, MDA-MB231TaxR (an induced paclitaxel-resistant sub-cell line of the MDA-MB231[9]) and MCF7. In addition, a subset was tested against the melanoma cell lines MZ-MEL-3.1, Mel-SOE, UKRV-Mel-38, UKRV-Mel-17 and MDA-MB-435 (Table 1, Supplemental Table S1).
as §1

[3] = Melanocytes #1, read-out: GI50 Melanocytes #1
[4] = Melanocytes #2, read-out: GI50 Melanocytes #2

Structure (SMILES) | cell cycle effect (HeLa cells; 3× GI50, 12 or 24 h, HeLa and UKRV-Mel-38 (Supplemental Fig. S11)) | GI50 [1, 3] | GI50 [1, 4] | Selectivity Index (primary skin cells) [1] | Ki [2] | mode of inhibition of colchicine binding [2] | GI50 (MDA-MB231-TaxR) | cell cycle effect (HeLa cells; HeLa, 30 nM, by 12 h, maintained after 24 h) | strength of inhibition relative to CTR-32 (Ki ratio) ([2]; CTR-21 versus CTR-32)
CCOc1ccccc1C(=O)/C=C/c1cc2ccccc2[nH]c1=O [CTR-32, (E)-3-(3-(2-ethoxyphenyl)-3-oxoprop-1-enyl)quinolin-2(1H)-one] | arrests the cells in G2/M | 2630 ± 782 nM | 3630 ± 1080 nM | 158 | 7200 nM | competitive inhibitors | 22 ± 4 nM |  | 
COc1ccccc1C(=O)/C=C/c1cc2cccc(OC)c2[nH]c1=O [CTR-21, (E)-8-methoxy-3-(3-(2-methoxyphenyl)-3-oxoprop-1-enyl) quinolin-2(1H)-one] |  | 2090 ± 804 nM | 3050 ± 960 nM | 157 | 1470 nM | competitive inhibitors | 32 ± 8 nM | arrest in G2/M | about 4.9 times

— publication PMC8566451, “Lead optimization of novel quinolone chalcone compounds by a structure–activity relationship (SAR) study to increase efficacy and metabolic stability” (Scientific Reports, 2021)
